{"source": "patent US20230065640A1", "about": "“COMBINATION THERAPIES AND BIOMARKERS FOR TREATING B-CELL LYMPHOMAS” (priority 2020, published 2023)", "key": {"[1]": {"system": "DLBCL with a MYCC rearrangement and BCL2 expression (MYCC/BCL2 associated lymphoma)", "assay": "CDX mouse model of DLBCL with a MYCC rearrangement and BCL2 expression", "assay_type": "in vivo, BALB/C-nu mice", "conditions": "FIG. 8; alone and in combination with BCL2 inhibitor (ABT199)", "description": "(§1) Tumor Xenograft models (CDX models). BALB/C-nu mice (6-8 weeks, SPF Biotechnology Co., Ltd) were inoculated by s.c. injection of tumor cell (SU-DHL-10, SU-DHL-4 or OCI-LY-7) suspension containing Matrigel (Corning)/PBS at a ratio of 1:1. 1×10^7 cells were inoculated. When tumors reached 150-200 mm^3, treatment was initiated. Tumor growth was monitored twice a week. Tumor volume was calculated by applying the following equation: tumor volume=½(length×width^2)."}, "[2]": {"system": "SU-DHL-10, OCI-LY-7 and SU-DHL-2 cells", "assay": "Cell proliferation XTT assay in DLBCL cells with or without MYCC rearrangement", "assay_type": "cell-based, Human", "conditions": "DLBCL with a MYCC rearrangement versus without, 72 h incubation, FIG. 4", "description": "(§2) Cell Culture. Human diffuse large B-cell lymphoma cells, SU-DHL-10, SU-DHL-4, OCI-LY-7 and SU-DHL-2 cells (purchased from Cell Bank, Shanghai Institutes for Biological Sciences, Chinese Academy of Sciences) were cultured in RPMI 1640 (Hyclone™, SH30809.01B) supplemented with 10% fetal bovine serum (GEMINI, 900-108). Cultures were incubated at 37° C., in 5% CO2.\nCell Treatment and proliferation assay. SU-DHL-10, OCI-LY-7 and SU-DHL-2 cell were seeded in 96-well plates (Corning-Costar, 3599) at 40000 cells/well in 200 μl culture medium treated with YM155 (50, 25, 12.5, 2.5, 1, 0.5 nM; Apex BIO, A4221) or DMSO (0.1%; Amresco, 67-68-5). After 72 h incubation, cell proliferation was measured by XTT assay (Cell Proliferation Kit II XTT, sigma, 11465015001) according to manufacturer's protocols. Briefly, after YM155 treatment, added to each well 50 μl of the XTT labeling mixture, then incubated the micro-plate for 4 h in a humidified atmosphere. The absorbance of wavelength was determined at 490 nm (OD490) and 650 nm (OD650) respectively by SpectraMax 190. The IC50 was calculated by the value of OD490. OD650."}, "[3]": {"system": "survivin", "conditions": "Minematsu et al. 2008; cited from earlier work"}, "[4]": {"system": "prostate, pancreatic, and lung cancer", "conditions": "cited from earlier work"}, "[5]": {"system": "DLBCL with a MYCC rearrangement", "assay": "CDX mouse model of DLBCL with a MYCC rearrangement", "assay_type": "in vivo, BALB/C-nu mice", "description": "as §1"}, "[6]": {"system": "SU-DHL-4 (double hit (MYCC/BCL2), CD20 positive)", "assay": "SU-DHL-4 CDX model", "assay_type": "in vivo, BALB/C-nu mice", "conditions": "FIG. 10; b/c-nu; PC-002 5 mg/kg i.p., alone and in combination with CHOP or RCHOP", "procedure": "CHOP: cyclophosphamide, 40 mg/kg, QW*3, D1, i.v., doxorubicin, 3.3 mg/kg, QW*3, D1, i.v., vincristine, 0.5 mg/kg, QW*3, D1, i.v., prednisone, 0.2 mg/kg, QD*5*3W,D1-5, p.o. RCHOP: rituximab, 25 mg/kg, QW*3, i.p., cyclophosphamide, 40 mg/kg, QW*3, D1, i.v., doxorubicin, 3.3 mg/kg, QW*3, D1, i.v., vincristine, 0.5 mg/kg, QW*3, D1, i.v., prednisone, 0.2 mg/kg, QD*5*3W,D1-5, p.o. PC-002: 5 mg/kg, QD*5*3w, D1-5, i.p."}, "[7]": {"system": "DLBCL cells with a MYCC rearrangement", "assay": "Apoptosis assay (Annexin V/PI staining)", "assay_type": "cell-based, Human", "conditions": "24 hours post-treatment, FIG. 5A", "description": "as §2\nApoptosis Assay. Apoptosis was detected by Annexin V/PI staining kit (Thermo Fisher) according to the manufacturer's instructions. Briefly, cells were plated at a density of 5×10^5 cells/mL in RPMI 1640 media with 2% FBS with desired concentrations of YM155. At 24 hours post-treatment the cells were harvested and tested for apoptosis by Annexin V and PI staining. Cell analysis was performed using a FACSAria (BD)."}, "[8]": {"system": "c-MYC", "assay": "Western blot of c-MYC in DLBCL cells", "assay_type": "cell-based, Human", "conditions": "DLBCL cells with a MYCC rearrangement; treated 24 hours; FIG. 5B", "description": "as §2\nWestern blot. SU-DHL-10, OCI-LY-7 and SU-DHL-2 cells were treated with/without YM155 for 24 hours. Cell lysates were prepared in lysis buffer (Thermo Fisher). Protein concentrations were determined using a Bio-Rad protein assay (Bio-Rad). 20 μg protein was loaded in 4%-12% SDS-PAGE (Invitrogen), and transferred to nitrocellulose. Membranes were blocked in 5% BSA (Sigma) for 1 hour, incubated with the primary antibody overnight at 4° C., washed and incubated with the appropriate horseradish-conjugated secondary antibody (1:5000, Cell Signaling Technology) for 1 hour at room temperature. An enhanced chemiluminescent kit (Beyotime Biotechnology) was used to visualize the signal. The following antibodies were used: c-MYC (Abcam) and GAPDH (Beyotime Biotechnology)."}, "[9]": {"conditions": "FIG. 6, alone and in combination with PARP inhibitor (olaparib)"}}}
{"compound": "1-(2-Methoxyethyl)-2-methyl-4,9-dioxo-3-(pyrazin-2-ylmethyl)-4,9-dihydro-1H-naphtho[2,3-d] imidazolium bromide [YM155]", "values": [{"measurement": "effect on tumor growth", "setting": "[1]", "result": "complete tumor regression"}, {"measurement": "sensitivity of DLBCL to YM155 (cell proliferation)", "setting": "[2]", "result": "more sensitive"}, {"measurement": "survivin expression", "setting": "[3]", "result": "down-regulation of survivin"}, {"measurement": "antitumor activity", "setting": "[4]; Minematsu et al. 2008", "result": "potent antitumor activity"}, {"measurement": "anti-tumor effects in various in vivo cancer models", "setting": "[4]; prostate, pancreatic, and lung cancer, Nakahara et al. 2007, Na et al. 2012", "result": "exerts anti-tumor effects"}, {"measurement": "effect on tumor growth", "setting": "[5]; [9]", "result": "tumor regression"}, {"measurement": "effect on tumor growth", "setting": "[5]; FIG. 7, alone and in combination with CHOP", "result": "tumor regression"}, {"measurement": "effect on tumor volume", "setting": "[5]; FIG. 9, b/c-nu, PC-002 5 mg/kg i.p., alone and in combination with CHOP", "result": "significant effect on reducing tumor volume"}, {"measurement": "effect on tumor volume", "setting": "[6]", "result": "profound effect on reducing tumor volume, essentially eliminating tumor growth"}, {"measurement": "apoptosis of DLBCL cells", "setting": "[7]", "result": "induces apoptosis"}, {"measurement": "MYCC expression", "setting": "[8]", "result": "lowers the MYCC expression"}]}
{"compound": "CC1(C)CCC(CN2CCN(c3ccc(C(=O)NS(=O)(=O)c4ccc(NCC5CCOCC5)c([N+](=O)[O-])c4)c(Oc4cnc5[nH]ccc5c4)c3)CC2)=C(c2ccc(Cl)cc2)C1", "note": "[ABT199]", "values": [{"measurement": "effect on tumor growth", "setting": "[1]", "result": "no significant effect on tumor growth"}]}
{"compound": "O=C(c1cc(Cc2n[nH]c(=O)c3ccccc23)ccc1F)N1CCN(C(=O)C2CC2)CC1", "note": "[olaparib]", "values": [{"measurement": "effect on tumor growth", "setting": "[5]; [9]", "result": "no significant effect on tumor growth"}]}
